These results are taken from patent publication US20260014235A1, “METHODS OF PROMOTING REMYELINATION” (Mallinckrodt Pharmaceuticals Ireland Limited, priority 2019, published 2026).

The test has as its system mouse model of cuprizone demylelination. Briefly: Remyelination in gray matter (hippocampus) via quantification of PLP, cuprizone/rapamycin mouse model. Conditions: 6 weeks treatment after 12 weeks cuprizone co-administered with rapamycin, RCI 10 U/kg. The test is classed as in vivo, C57BL/6 mice. As to the method: The hypothesis that repository corticotropin injection (RCI) accelerates remyelination in a mouse model of cuprizone demylelination was tested. C57BL/6 mice were fed 0.3% cuprizone co-administered with rapamycin for 12 weeks to induce demyelination and inhibit spontaneous remyelination. […] Mice were treated for another 6 weeks with RCI, triiodothyronine (T3, positive control), or vehicle (negative control). Remyelination was assayed in gray matter (hippocampus) via quantification of myelin proteolipid protein (PLP) and in white matter (corpus callosum) via p-Phenylenediamine (PPD) staining. […] Of note-increased remyelination was not observed at higher doses of RCI in this rodent model (data not shown).

Marks after values point to notes of the source that are not given here.

As to `N[C@@H](Cc1cc(I)c(Oc2ccc(O)c(I)c2)c(I)c1)C(=O)O` [Positive Control, triiodothyronine], the “Mean PLP (% Area Covered)” value was 40.8** % Area Covered.
